From patent US9765115B2, “Inhibitors of metastasis, methods of generating such inhibitors and their therapeutic applications” (Board of Supervisors of Louisiana State University acting …, priority 2011, dated 2017)

Experiments:
[1] = target: T1, CTR-ZO-1 interaction (Homo sapiens, UniProt P30988, E471A/S472A/S473A); experiment: CTR-ZO-1 co-immunoprecipitation; format: cell-based; details: all CT concentrations
T1 construct: PCR generated full length CTRwt and CTRΔESS cDNAs were cloned directionally into pcDNA3.1 mammalian expression vector; FLAG (N); expressed in transfected cells; host or cells: PC-31 / PC-3 cells stably expressing FLAG-CTRwt; ZO-1 is the cells' own
T1 sequence (P30988 with tags, fused parts or gaps): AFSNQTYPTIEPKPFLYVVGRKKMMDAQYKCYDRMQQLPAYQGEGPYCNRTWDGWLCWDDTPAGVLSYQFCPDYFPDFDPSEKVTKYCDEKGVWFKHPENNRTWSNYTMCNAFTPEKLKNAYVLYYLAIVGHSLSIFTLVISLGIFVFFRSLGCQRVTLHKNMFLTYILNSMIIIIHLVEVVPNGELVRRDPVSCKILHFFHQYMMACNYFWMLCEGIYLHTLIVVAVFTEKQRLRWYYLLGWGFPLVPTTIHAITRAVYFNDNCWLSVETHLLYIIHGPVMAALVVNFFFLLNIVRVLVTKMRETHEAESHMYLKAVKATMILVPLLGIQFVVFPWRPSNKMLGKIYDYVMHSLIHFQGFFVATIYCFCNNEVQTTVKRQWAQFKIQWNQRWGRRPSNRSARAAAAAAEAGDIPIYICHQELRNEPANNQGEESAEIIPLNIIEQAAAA
Protocol: Serum-starved PC-31-V, PC-31-CTRwt or PC-31-CTRΔESS cells (2×10^6 per 100 mm dish) were stimulated with or without 50 nM CT for 3 min, washed, and lysed in the IP buffer as previously described (von Zastrow et al., 1994). CTR in normalized lysate proteins was immunoprecipitated with anti-FLAG EZ-view beads (Sigma Chemical Co., St. Louis, Mo.), and eluted with FLAG peptide (600 μg/ml in PBS). CTR immunoprecipitates were processed for ZO-1 immunoblotting. To control for protein loading and transfer, the blots were stripped and reprobed with immunoprecipitating antibody.
PC-31 cells stably expressing either FLAG-CTRwt or FLAGCTRΔESS were treated with or without CT for 3 min. The analysis of FLAG-CTR IPs confirmed that only FLAG-CTRwt, but not FLAG-CTRΔESS, co-precipitated ZO-1 (FIG. 3B). […] The effect of multiple CT concentrations on CTR-ZO-1 co-precipitation was tested in PC-3 cells. […] However, co-precipitation of ZO-1 by CTRwt was strong in PC-3 cells stimulated with 10 nM CT, and was even stronger in the cells receiving 100 nM CT.
As shown above, CTR binds to ZO-1 through PDZ interaction (i.e. PDZ ligand on C-tail of CTR binds to the PDZ domain of ZO-1). To attenuate this binding, ZO-1 was saturated with a small C-terminal peptide of CTR sequence containing the PDZ-binding motif. Since ZO-1 is an intracellular membrane protein, the interfering peptide was delivered inside the plasma membrane. It has been shown that trans-activating transcriptional activator (TAT) protein (86-mer polypeptide) from HIV-1 enters mammalian cells when added to the surrounding media (Frankel et al., 1988; Green et al., 1989). Certain small regions of such proteins (10-16-mers) called protein transduction domains (PTDs), also efficiently traverse biological membranes (Elliott et al., 1997). Therefore, a fusion peptide Pep 1 was synthesized of TAT-peptide sequences of HIV virus and CTR-C(N-[…]-C (SEQ ID NO:2), CTR-C sequence underlined). The first experiment was to see if Pep I binds to ZO-1 in reversible fashion. For this, amino acid Y in Pep I was labeled with ^125I, and the binding with ZO-1 analyzed in the presence/absence of unlabeled Pep I (1000×; 20 μM). PC-3CTR-ZO-1-MYC cells were first incubated with unlabeled Pep I or control peptide (20 μM) for 5 min. The cells were then incubated with ^125I-pep I or C for 25 min. The cells were then washed in IP buffer, treated with DSP, and lysed. ZO-1 IPs were obtained, fractionated on SDS-PAGE, and autoradiographed. […] Next, whether Pep I competes with CTR for ZO-1 binding was tested. For this, PC-3-CTR-wt cells were treated with CT (50 nM) and or Pep I (50 μM) for 15 min. The CTR IPs were then immunoblotted and probed for ZO-1 immunoreactivity. […] Next, the biological impact of this phenomenon was examined by testing the effect of Pep I on CTR-stimulated invasion.

[2] = system: TCF/LEF promoter activity in PC-3 cells; experiment: TCF/LEF luciferase reporter assay (pGL3-OT/pGL3-OF); format: cell-based; details: 50 nM CT
Protocol: FIG. 28 depicts effect of CT on TCF/LEF promoter activity in PC-3 cells with various compounds added with CT. Cells were seeded into 6-well plates and transfected with the pGL3-OT luciferase/pRL-tK plasmids or pGL3-OF-luciferase/pRL-TK plasmids. The cells were then incubated in complete medium for 48 h, after which they were serum-starved for 16 h. The cells were then treated with CT and/or PMH compounds, and the cell lysates analyzed for luciferase activity. The results are expressed as relative light units (RLU) after normalization with Renilla luciferase activity. The experiment was repeated three separate times, and results expressed as means±S.E.M.
Certain hydantoin-like molecules isolated from sea sponge have been identified that could inhibit prostate cell metastasis (Shah et al., 2009; Mudit et al., 2011). Disruption of junctional complex stabilizes intracellular β-catenin, leading to its translocation in the nucleus, where it can bind to its partner LEF-1 (lymphocyte enhancer binding factor-1) to transactivate target genes. The transcription of TCF/LEF genes can be quantitated by using luciferase-based reporter plasmids, pGL3-OT and pGL3-OF, the improved version of the Topflash and Fopflash vectors (Shah et al., 2009). This assay can be used to comparatively evaluate junction disrupting activity of multiple compounds in a single assay. […] The two compounds, MRM-6 and MRM-4, derivatives of PMH whose structures are shown below, were obtained from Dr. K. A. El Sayed.

calcitonin [CT]
co-precipitation of ZO-1 by CTRΔESS [1]: not co-precipitated | increase in luciferase activity (RLU) [2]: over 50 fold
